# In patent publication US20210386813A1, “COMPOSITION FOR TREATING OVERWEIGHT AND/OR OBESITY” (NEXIRA, priority 2018, published 2021):
# Marks after values point to notes of the source that are not given here.
# What was measured:
# [1] = tested on: adipocytes; experiment: Lipolysis study of mature adipocytes (glycerol and NEFA release); assay type: cell-based; conditions: human adipocytes, 2 h at 37° C.; forskolin 1 μM, isoproterenol 0.1 μM; 100 = Base control
# Description: The quantification of the production of glycerol is performed by means of the Glycerol Assay Kit test kit available from Randox under the reference GY105.
# The quantification of the production of non-esterified fatty acids is performed by the NEFA HR2—RI Set, NEFA HR2—R2 Set and NEFA Standard test kits available from Fujifilm Wako Chemicals Europe under the respective references 434-91795, 436-91995 and 270-77000.
# Each of these kits is based on the production of a colored compound. Thus, the respective concentrations of glycerol and non-esterified fatty acids are determined by means of optical absorbance measurements, and the comparison of these measurements with known absorbance ranges for glycerol and non-esterified fatty acid concentrations. The values are normalized by DNA quantification by means of the Quant-iT® PicoGreen® (Invitrogen®) kit available from ThermoFisher Scientific under the reference P7589.
# Adipocytes coming from humans are used for the lipolysis study.
# The adipocytes are prepared from subcutaneous adipose tissue digested by collagenase followed by a low centrifugation.
# The adipocytes are incubated in a Krebs-Ringer bicarbonate (KRB) buffer solution, sometimes containing basolateral medium of caco-2 cells exposed with, either predetermined concentrations of extract(s) (at a rate of one 1:8 dilution each), or with reference products. The incubation time is 2 h at a temperature of 37° C. The cell culture medium is subsequently harvested and frozen at a temperature of −20° C. for use in the glycerol and NEFA tests. The adipocytes are also harvested for the DNA quantification.
# Forskolin (1 μM, available from Sigma-Aldrich under the reference F6886) and isoproterenol (0.1 μM, available from Sigma-Aldrich under the reference 16504) are used as lipolysis activators.
# The results are expressed in percentages in relation to the results obtained for respective BM media without extracts. The statistical analyses are performed by placing the BM environments comprising the extracts in relation with the respective BM environments without extracts.
# [2] = tested on: UCP1; experiment: Adipose tissue phenotypic orientation (thermogenesis) study, UCP1 expression by immunofluorescence; assay type: cell-based; conditions: human preadipocytes; GW9662; relative to differentiated cells
# Description: The Applicant evaluated the effects of a multitude of bioavailable plant extracts, as well as the effects of the combination of these extracts, on the differentiation of preadipocytes or adipocytes into beige adipocytes. More generally the Applicant evaluated the orientation of a white phenotype towards a beige phenotype.
# Preadipocytes coming from humans are used for the cellular differentiation study. The three donors are those of the cytotoxicity study (I) above.
# (§1) The preadipocytes are isolated by digestion and centrifugation in accordance with the protocol described for the cytotoxicity study (I) above. The preadipocytes are spread at high density on microtiter plate 96 and cultivated according to the protocol described for the lipid accumulation study (II). The placing in contact with the basolateral medium is performed according to the protocol described for the lipid accumulation study (II).
# After the culture, the differentiated cells are fixed with a 4% paraformaldehyde solution then colored with an anti-UCP1 fluorescent antibody available from Sigma-Aldrich under the reference U6382. […]
# The quantification is based on fluorescence intensity measurements on images. […]
# Fluorescence microphotographs are performed to quantify the UCP1 expression. […]
# [3] = tested on: preadipocytes; experiment: Preadipocyte differentiation and lipid accumulation (adipogenesis) study, BODIPY fluorescence; assay type: cell-based; conditions: human preadipocytes; GW9662 0.1 μM; relative to differentiated cells
# Description: In practice, the effects of the bioavailable extracts on the lipid accumulation are studied by measuring the accumulation of lipid droplets in the differentiated preadipocytes, that is to say in the adipocytes. The measurement is optical and is performed by fluorescence.
# Preadipocytes coming from humans are used for the lipid accumulation study.
# The three adipose tissue donors are adult females undergoing a cosmetic or reconstructive surgery intervention.
# The preadipocytes are isolated by digestion and centrifugation in accordance with the protocol described for the cytotoxicity study (I) above. […]
# The quantification is based on fluorescence intensity measurements on images. The acquisition and the processing of images includes particularly: • the acquisition of microphotographs with a video microscope using the so-called Apotome technology (7 micrographs per well, 3 wells per processing condition); • the quantification of the lipid accumulation by the treatment and the image analysis of the ImageJ software developed by National Institutes of Health (NIH); • the determination of the number of nuclei by means of a shape detection and shape sorting algorithm based on the nucleus size and the circularity of the nucleus; • the connection between the fluorescence detected and the number of nuclei. […]
# Fluorescence microphotographs are performed to quantify the lipid accumulation (Bodipy®). […]
# [4] = tested on: differentiated preadipocytes; experiment: Adipose tissue energy metabolism study, ATP production (Mitochondrial ToxGlo); assay type: cell-based, human; conditions: differentiated cells; rotenone 400 nM, 2 hours
# Description: In order to study the energy metabolism, the ATP production is measured in the differentiated preadipocytes. This provides information on the presence of mitochondria and their activity. Here, the Mitochondrial ToxGlo® test available from Promega under the reference G8000 is used.
# The test includes placing preadipocytes in contact with an ATP detection reagent. […] The ATP detection reagent comprises luciferin, ATPase inhibitors and Ultra-Glo® thermostable luciferase. The values are normalized with a DAPI quantification. The Normalization is carried out exclusively in relation to the basolateral medium.
# Preadipocytes coming from humans are used for the energy metabolism study. The three donors are those of the cytotoxicity study (I) above.
# as §1
# The quantification of the ATP synthesis is performed on differentiated cells.
# The basolateral medium (BM) comprising the bioavailable extracts of the Caco-2 cell system is harvested for the test. […]
# [5] = tested on: preadipocytes; experiment: Cytotoxicity study of bioavailable plant extracts on human preadipocytes (LDH release, CytoTox 96); assay type: cell-based; conditions: relative to FBS 1% base control, 0.2% triton
# Description: The analysis of the damage of cell membranes is performed with the CytoTox 96® Non-Radioactive Cytotoxicity Assay kit available from Promega under the reference G1780. This test is based on the principle that cells having a damaged cell membrane release […] (LDH) into the culture medium. LDH is measured by supplying in the medium lactate, oxidized nicotinamide adenine dinucleotide (NAD+) and iodonitrotetrazolium purple as substrates in presence of diaphorase. Red formazan is then created. The red formazan is proportional to the LDH released by the cells. The Applicant evaluated the cytotoxic effects of a multitude of bioavailable plant extracts, as well as the cytotoxic effects of the combination of these extracts, on preadipocytes coming from various donors. The cytotoxic effects of bioavailable plant extracts and their combinations was evaluated on preadipocytes. […] An extract is considered as cytotoxic if the LDH level measured is greater than or equal to 20% in relation to the LDH level measured with the control extract. […] The results are expressed in percentages in relation to the control extract; except for the LDH test, for which the results are expressed as percentages of the cell lysis control (average+/− SEM), which represents the positive control for the cytotoxicity (the control is fixed at 100%). […]
# [6] = tested on: preadipocytes; experiment: Cellular viability / mitochondrial activity (MTS formazan, Cell Titer 96 AQueous One); assay type: cell-based; conditions: human preadipocytes; relative to FBS 1% base control; 0.2% triton
# Description: The cytotoxic effects of bioavailable plant extracts and their combinations was evaluated on preadipocytes. Two technical approaches were implemented: • the evaluation of the cellular viability by the measurement of the production of formazan by active (therefore living) cells; and • the analysis of the damage of cell membranes by the measurement of lactate dehydrogenase (LDH) in the cell culture medium.
# The evaluation of the cellular viability is performed with the Cell Titer 96® AQueous One Solution Cell Proliferation Assay test kit available from Promega under the reference G3580.
# In this test, the compound MTS-tetrazolium (3-(4,5-dimethylthiazol-2-yl)-5-(3-carboxymethoxyphenyl)-2-(4-sulfophenyl)-2H-tetrazolium) is transformed by active (living) cells in a culture medium in colored formazan. The transformation of MTS-tetrazolium is performed by the mitochondria in the cells. Formazan is soluble in the culture medium. The quantity of formazan is directly proportional to the number of living cells and may be measured by spectrophotometry (absorbance).
# In practice, the cellular viability test is therefore based on the mitochondrial activity of the cells.
# As a result, the viability study may provide precious information for the energy metabolism study (IV). […]
# The cellular viability is measured directly in the wells of the microtiter plate. […]
compound,measurement,setting,value
C=C[C@@]1(C)CC(=O)[C@]2(O)[C@@]3(C)[C@@H](O)CCC(C)(C)[C@@H]3[C@H](O)[C@H](OC(C)=O)[C@@]2(C)O1 [Forskolin],Glycerol % Differentiated,[1],151.62** % Differentiated
same,NEFA % Differentiated,[1],179.70** % Differentiated
O=C(Nc1ccccc1)c1cc([N+](=O)[O-])ccc1Cl [GW9662],UCP1 expression (total cell normalization) % Differentiated,[2],83.38 % Differentiated
same,Lipid accumulation % Differentiated,[3],30.59* % Differentiated
CC(C)NCC(O)c1ccc(O)c(O)c1 (stereo not drawn) [Isoproterenol],Glycerol % Differentiated,[1],213.97** % Differentiated
same,NEFA % Differentiated,[1],241.48** % Differentiated
"C=C(C)[C@H]1Cc2c(ccc3c2O[C@@H]2COc4cc(OC)c(OC)cc4[C@@H]2C3=O)O1 [Rotenone, rotenone]",ATP production % Differentiated,[4],27.95** % Differentiated
triton [Lysis control],Cytotoxicity % Base control (release of LDH),[5],"1,252.05** % Base control"
same,Mitochondrial Activity (viability) % Base control,[6],23.78** % Base control
